Laboratory results reported in ChEMBL document CHEMBL5344434.

Assays:
[1] = Selectivity index, ratio for cytotoxicity against african green monkey Vero E6 cells after 48 hrs to antiviral activity against SARS-CoV-2 2019-nCoV Muc-IMB-1 infected in Vero E6 cells pre-infected with virus for 1 hr followed by compound addition and measured after 48 hrs post infection; assay type: toxicity, cell-based, Vero C1008; settings: read-out: Selectivity Index
[2] = Selectivity index, ratio for cytotoxicity against african green monkey Vero E6 cells after 48 hrs to antiviral activity against RVFV MP-12 infected in Vero E6 cells pre-infected with virus for 1 hr followed by compound addition and measured after 48 hrs post infection; assay type: toxicity, cell-based, Vero C1008; settings: read-out: Selectivity Index
[3] = Selectivity index, ratio for cytotoxicity against human HepG2 cells after 24 hrs to antiviral activity against HEV Kernow-C1 infected in gaussia luciferase transfected HepG2 cells pre-infected with virus for 4 hrs followed by compound addition and measured after 24 hrs post infection; assay type: toxicity, cell-based; settings: read-out: Selectivity Index
[4] = Selectivity index, ratio for cytotoxicity against human Huh-7 cells after 48 hrs to antiviral activity against Chikungunya virus ECSA infected in Huh-7 cells expressing GFP pre-infected with virus for 1 hr followed by compound addition and measured after 48 hrs post infection; assay type: toxicity, cell-based; settings: read-out: Selectivity Index
[5] = Selectivity index, ratio for cytotoxicity against african green monkey Vero E6 cells after 24 hrs to antiviral activity against RVFV MP-12 infected in Vero E6 cells pre-infected with virus for 1 hr followed by compound addition and measured after 24 hrs post infection; assay type: toxicity, cell-based, Vero C1008; settings: read-out: Selectivity Index
[6] = Selectivity index, ratio for cytotoxicity against human Huh-7 cells after 24 hrs to antiviral activity against Chikungunya virus ECSA infected in Huh-7 cells expressing GFP pre-infected with virus for 1 hr followed by compound addition and measured after 24 hrs post infection; assay type: toxicity, cell-based; settings: read-out: Selectivity Index
[7] = Selectivity index, ratio for cytotoxicity against human HepG2 cells after 48 hrs to antiviral activity against HEV Kernow-C1 infected in gaussia luciferase transfected HepG2 cells pre-infected with virus for 4 hrs followed by compound addition and measured after 48 hrs post infection; assay type: toxicity, cell-based; settings: read-out: Selectivity Index
[8] = Selectivity index, ratio for cytotoxicity against african green monkey Vero E6 cells after 24 hrs to antiviral activity against SARS-CoV-2 2019-nCoV Muc-IMB-1 infected in Vero E6 cells pre-infected with virus for 1 hr followed by compound addition and measured after 24 hrs post infection; assay type: toxicity, cell-based, Vero C1008; settings: read-out: Selectivity Index
Vero C1008 = assay: Cytotoxicity against african green monkey Vero E6 cells after 48 hrs by MTT assay; assay type: toxicity, cell-based; settings: chlorocebus sabaeus, vero c1008, 48 h
Hepatitis E virus [9] = assay: Antiviral activity against HEV Kernow-C1 infected in gaussia luciferase transfected HepG2 cells assessed as reduction in viral replication pre-infected with virus for 4 hrs followed by compound addition and measured after 48 hrs post infection by luminometer analysis; assay type: functional, organism-based; settings: for EC90: time 44 hrs
[10] = Cytotoxicity against human HepG2 cells after 48 hrs by MTT assay; assay type: toxicity, cell-based
Hepatitis E virus [11] = assay: Antiviral activity against HEV Kernow-C1 infected in gaussia luciferase transfected HepG2 cells assessed as reduction in viral replication pre-infected with virus for 4 hrs followed by compound addition and measured after 24 hrs post infection by luminometer analysis; assay type: functional, organism-based; settings: for EC90: time 20 hrs
[12] = Cytotoxicity against human HepG2 cells after 24 hrs by MTT assay; assay type: toxicity, cell-based

Row | SMILES | selectivity ratio at 24 h [3] | selectivity ratio at 48 h [7] | further results
1 | COC(=O)[C@H]1[C@@H](O)[C@@]2(O)c3c(Cl)cc(Cl)cc3O[C@@]2(c2ccc(OC)cc2)[C@@H]1c1ccccc1 (racemic) | 31.7 | 8.2 | selectivity ratio at 48 h [1]: 5.7; selectivity ratio at 48 h [2]: 7; selectivity ratio at 48 h [4]: 44.9; selectivity ratio at 24 h [5]: 9.8; selectivity ratio at 24 h [6]: 57.5; selectivity ratio at 24 h [8]: 9
2 | COC(=O)[C@H]1[C@@H](O)[C@@]2(O)c3c(OC)cc(Br)cc3O[C@@]2(c2ccc(OC)cc2)[C@@H]1c1ccccc1 (racemic) | 160 | 11 | selectivity ratio at 48 h [1]: 20.9; selectivity ratio at 48 h [2]: 23.1; selectivity ratio at 48 h [4]: 428; selectivity ratio at 24 h [5]: 38.4; selectivity ratio at 24 h [6]: 637; selectivity ratio at 24 h [8]: 29.5
3 | COC(=O)[C@H]1[C@@H](O)[C@@]2(O)c3c(Cl)cc(OC)cc3O[C@@]2(c2ccc(OC)cc2)[C@@H]1c1ccccc1 (racemic) | 9.3 | 1.8 | –
4 | COCOc1cc(F)c2c(c1)O[C@@]1(c3ccc(Br)cc3)[C@H](c3ccccc3)[C@@H](C(=O)OC)[C@@H](O)[C@@]21O (racemic) | 8.1 | 2.1 | –
5 | CONC(=O)[C@H]1[C@@H](O)[C@@]2(O)c3c(Cl)cc(Br)cc3O[C@@]2(c2ccc(OC)cc2)[C@@H]1c1ccccc1 (racemic) | 123 | 5.7 | selectivity ratio at 48 h [1]: 0.9; CC50 (Vero C1008): 176 nM; selectivity ratio at 48 h [2]: 1.7; selectivity ratio at 48 h [4]: 317; selectivity ratio at 24 h [5]: 23.8; selectivity ratio at 24 h [6]: 402; selectivity ratio at 24 h [8]: 19.5
6 | COCOc1cc(F)c2c(c1)O[C@@]1(c3ccc(OC)cc3)[C@H](c3ccccc3)[C@@H](C(=O)OC)[C@@H](O)[C@@]21O (racemic) | 4.6 | 1.8 | –
7 | CONC(=O)[C@H]1[C@@H](O)[C@@]2(O)c3c(Cl)cc(Cl)cc3O[C@@]2(c2ccc(OC)cc2)[C@@H]1c1ccccc1 (racemic) | 65.9 | 3.3 | –
8 | COC(=O)[C@H]1[C@@H](O)[C@@]2(O)c3c(Br)cc(OC)cc3O[C@@]2(c2ccc(OC)cc2)[C@@H]1c1ccccc1 (racemic) | 9.7 | 2.5 | –
9 | COC(=O)[C@H]1[C@@H](O)[C@@]2(O)c3c(Cl)cc(Cl)cc3O[C@@]2(c2ccc(Br)cc2)[C@@H]1c1ccccc1 (racemic) | 13.4 | 3.7 | –
10 | COC(=O)[C@H]1[C@@H](O)[C@@]2(O)c3c(OC)cc(OC)cc3O[C@@]2(c2ccc(F)cc2)[C@@H]1c1ccccc1 (racemic) | 10.9 | 1.4 | –
11 | COc1cc(OC)c2c(c1)O[C@@]1(c3ccc(F)cc3)[C@H](c3ccccc3)[C@@H](C(=O)N(C)C)[C@@H](O)[C@@]21O (racemic) | 4.4 | 1.5 | –
12 | COc1ccc([C@@]23Oc4cc(OC)cc(OC)c4[C@]2(O)[C@H](O)[C@H](C(=O)N(C)C)[C@H]3c2ccccc2)cc1 (racemic) [ROCAGLAMIDE] | 19.7 | 2.1 | –
13 | CONC(=O)[C@H]1[C@@H](O)[C@@]2(O)c3c(OC)cc(OC)cc3O[C@@]2(c2ccc(Cl)cc2)[C@@H]1c1ccccc1 (racemic) | 198 | 4.2 | EC50 (Hepatitis E virus [9]): 2.3 nM; EC90 (Hepatitis E virus [9]): 18.2 nM; CC50 at 48 h [10]: 10 nM; EC50 (Hepatitis E virus [11]): 2.8 nM; EC90 (Hepatitis E virus [11]): 23.8 nM; CC50 at 24 h [12]: 529 nM
14 | COC(=O)[C@H]1[C@@H](O)[C@@]2(O)c3c(OC)cc(Cl)cc3O[C@@]2(c2ccc(OC)cc2)[C@@H]1c1ccccc1 (racemic) | 79.3 | 7.5 | –
15 | COC(=O)[C@H]1[C@@H](O)[C@@]2(O)c3c(OC)cc(F)cc3O[C@@]2(c2ccc(OC)cc2)[C@@H]1c1ccccc1 (racemic) | 1 | 1.3 | –
16 | COC(=O)[C@H]1[C@@H](O)[C@@]2(O)c3c(OC)cc(OC)cc3O[C@@]2(c2ccc(Br)cc2)[C@@H]1c1ccccc1 (racemic) | 74.1 | 3.2 | –
17 | COC(=O)[C@H]1[C@@H](O)[C@@]2(O)c3c(OC)cc(O[C@@H]4O[C@@H]([C@H](O)CO)CO[C@H]4OC)cc3O[C@@]2(c2ccc(OC)cc2)[C@@H]1c1ccccc1 [SILVESTROL] | 76.7 | 6.1 | –
18 | COC(=O)[C@H]1[C@@H](O)[C@@]2(O)c3c(Br)cc(Br)cc3O[C@@]2(c2ccc(OC)cc2)[C@@H]1c1ccccc1 (racemic) | 22.1 | 2.6 | –
19 | COc1ccc([C@@]23Oc4cc(OC)cc(F)c4[C@]2(O)[C@H](O)[C@H](C(=O)N(C)C)[C@H]3c2ccccc2)cc1 (racemic) | 14.3 | 2.7 | –
20 | CONC(=O)[C@H]1[C@@H](O)[C@@]2(O)c3c(F)cc(OC)cc3O[C@@]2(c2ccc(OC)cc2)[C@@H]1c1ccccc1 (racemic) | 28.5 | 2.5 | –
21 | COC(=O)[C@H]1[C@@H](O)[C@@]2(O)c3c(Cl)cc(Br)cc3O[C@@]2(c2ccc(OC)cc2)[C@@H]1c1ccccc1 (racemic) | 122 | 5.1 | –
22 | COC(=O)[C@H]1[C@@H](O)[C@@]2(O)c3c(OC)cc(OC)cc3O[C@@]2(c2ccc(Cl)cc2)[C@@H]1c1ccccc1 (racemic) | 26.4 | 2.2 | –
23 | CONC(=O)[C@H]1[C@@H](O)[C@@]2(O)c3c(OC)cc(Br)cc3O[C@@]2(c2ccc(OC)cc2)[C@@H]1c1ccccc1 (racemic) | 52800 | 7.4 | –
24 | COC(=O)[C@H]1[C@@H](O)[C@@]2(O)c3c(F)cc(OC)cc3O[C@@]2(c2ccc(OC)cc2)[C@@H]1c1ccccc1 (racemic) | 30.4 | 2.5 | –
25 | CONC(=O)[C@H]1[C@@H](O)[C@@]2(O)c3c(Br)cc(Cl)cc3O[C@@]2(c2ccc(OC)cc2)[C@@H]1c1ccccc1 (racemic) | 163 | 4.6 | EC50 (Hepatitis E virus [9]): 5.5 nM; EC90 (Hepatitis E virus [9]): 62.9 nM; CC50 at 48 h [10]: 26.3 nM; EC50 (Hepatitis E virus [11]): 4.1 nM; EC90 (Hepatitis E virus [11]): 131 nM; CC50 at 24 h [12]: 464 nM
26 | CONC(=O)[C@H]1[C@@H](O)[C@@]2(O)c3c(OC)cc(OC)cc3O[C@@]2(c2ccc(OC)cc2)[C@@H]1c1ccccc1 (racemic) | 35.4 | 3.8 | EC50 (Hepatitis E virus [9]): 3.7 nM; EC90 (Hepatitis E virus [9]): 27.3 nM; CC50 at 48 h [10]: 14.3 nM; EC50 (Hepatitis E virus [11]): 6.1 nM; EC90 (Hepatitis E virus [11]): 29 nM; CC50 at 24 h [12]: 188 nM
27 | COC(=O)[C@H]1[C@@H](O)[C@@]2(O)c3c(F)cc(F)cc3O[C@@]2(c2ccc(OC)cc2)[C@@H]1c1ccccc1 (racemic) | 1 | 1 | –
28 | COc1cc(OC)c2c(c1)O[C@@]1(c3ccc(Cl)cc3)[C@H](c3ccccc3)[C@@H](C(=O)N(C)C)[C@@H](O)[C@@]21O (racemic) | 50.8 | 2.7 | –
29 | CONC(=O)[C@H]1[C@@H](O)[C@@]2(O)c3c(OC)cc(OC)cc3O[C@@]2(c2ccc(F)cc2)[C@@H]1c1ccccc1 (racemic) | 13.5 | 3.7 | EC50 (Hepatitis E virus [9]): 52.9 nM; EC90 (Hepatitis E virus [9]): 338 nM; CC50 at 48 h [10]: 143 nM; EC50 (Hepatitis E virus [11]): 53.7 nM; EC90 (Hepatitis E virus [11]): 670 nM; CC50 at 24 h [12]: 666 nM
30 | COC(=O)[C@H]1[C@@H](O)[C@@]2(O)c3c(Br)cc(Cl)cc3O[C@@]2(c2ccc(OC)cc2)[C@@H]1c1ccccc1 (racemic) | 19 | 2.8 | –
